We go through one molecule from patent US6905852B1, “Herbicide-resistant protoporphyrinogen oxidase isolated from Nicotiana tabacum” (Nihon Nohyaku Co., Ltd., priority 1997, dated 2005).

Type in all cases: cell-based, Nicotiana tabacum
Test [1] relates to ETR-245. Kind of test: Accumulation of protoporphyrin IX in callus. As to conditions: 1,200 nM compound H. The procedure: (§1) The present inventors have tried to analyze the resistant mechanism in the resistant strain tolerant to photobleaching herbicide. It has been reported that in a plant treated by photobleaching herbicide, protoporphyrin IX is accumulated, the present inventors tried to measure the accumulation of protoporphyrin IX periodically. A resistant callus which has been subcultured in MS liquid medium containing 1,200 nM of compound H under light condition was cultured for 24 hours in a dark condition, then transplanted into MS liquid medium containing 1,200 nM of compound H, and after 6, 12, 18, 24, 32 and 48 hours later, the callus was collected, and protoporphyrin IX was measured. The extraction and assay of the protoporphyrin 1× from the callus were conducted as follows (Matringe, M. et al. (1989) Biochem, J. 260:231-235.). That is, 500 mg (wet weight) of the callus was homogenized in a mortar, and extracted with 7.5 ml of acetone: 1N NH4OH (9:1). The extract was centrifuged at 3,000×g for 10 minutes, then the supernatant was collected. To the supernatant 2.5 ml of hexane was added and mixed sufficiently, then, the lower layer was recovered. Further, after washing with hexane two twice, the amount of protoporphyrin IX obtained in the lower layer was measured from the value of Ex 405 nm-Em 631.5 nm by a fluorescence spectrophotometer. All the extraction procedures were conducted under the safety light.

Test [2] relates to ETR-056 line. Kind of test: Accumulation of protoporphyrin IX in callus. To be noted: 1,200 nM compound H. How it is done: as §1
For test [3], the system named is ETR-253. Kind of test: Accumulation of protoporphyrin IX in callus. As to conditions: 1,200 nM compound H. The procedure: as §1
In test [4] the test system is sensitive cell line. Description: Accumulation of protoporphyrin IX in callus. To be noted: 1,200 nM compound H.
The test system of test [5] is tobacco callus. Kind of test: Selection course of callus lines tolerant to the photobleaching herbicide. The procedure:
Using a medium containing the compound H containing two times concentration (20 nM) of the concentration at which tobacco callus completely dies, the selection of tobacco callus tolerant to photobleaching herbicide has been started. 1×10^5 of tobacco callus have been selected (Table 2), in the course of re-generation from 1×10^10 of the protoplast.
number of protoplast given: 1×10^10

Test [6] relates to tobacco callus. Kind of test: Sensitivity of tobacco callus to compound H (survival). How it is done: Tobacco (Nicotiana tabacum CV. Xanthi NC) was grown to 40 cm tall in a green house. And a leaf was cut, and the leaf was cut to square-shape of 5 cm width by a knife, then immersed in 70% ethanol for 30 seconds and in an aqueous solution of sodium hypochlorite (the effective concentration of chlorine was 1%) for 15 minutes to conduct surface-sterilization. After washing it for three times by sterilized water and removal of epidermis, the leaf fragment was suspended in 0.6M manitol (pH 5.8) containing an enzyme solution (1% cellulase onozuka R-10 and 0.05% macerozyme R-10 (manufactured by Yakult Co., Ltd.)) at 26° C. for three hours. After the enzyme treatment, protoplasts were washed with centrifugation by Murasige-Skoog (MS) medium for three times, and the obtained protoplast was suspended into MS solid medium containing 0.6% agar and 1 ppm of NAA and BA, to make a cell number of 10^8/ml, and pored into a dish at 1 cm thick. The protoplast was cultured at 27° C. under darkness to regenerate a callus. Four weeks after the incubation, the agar medium containing a callus grown up to about 1 mm large, was cut to rectangular shape having 1 cm width, and put on MS solid medium containing various concentration of the compound H (4-chloro-3-[2,4-dichloro-5(2-propenyloxy)phenyl]-5-difluoromethoxy-1-methyl-1H-pyrazole, described in Toku Kai Hei 3-163063), and the sensitivity of tobacco callus to photobleaching herbicide was examined. As shoen in Table 1, it become apparent that the callus completely dies at 10 nM.

For `C=CCOc1cc(-c2nn(C)c(OC(F)F)c2Cl)c(Cl)cc1Cl` [compound H, 4-chloro-3-[2,4-dichloro-5(2-propenyloxy)phenyl]-5-difluoromethoxy-1-methyl-1H-pyrazole], the “accumulation of protoporphyrin IX” value in test [1] and in test [3] was “little accumulation” throughout. Besides, the “amount of protoporphyrin IX” value in test [2] (24 hours) stood at 1.7 μg/g fresh weight; in test [2] (48 hours), 4.6 μg/g fresh weight; in test [4] (24 hours) it was 1.3 μg/g fresh weight; in test [4] (48 hours), 1.9 μg/g fresh weight. Also, the “Number of resistant cell lines” value was 100,000 in test [5] (20 nM, protoplast given 1×10^10); 50,000 in test [5] (30 nM); 40,000 in test [5] (50 nM); 7,200 in test [5] (75 nM); 254 in test [5] (150 nM); 120 in test [5] (300 nM). The “Number of resistant cell lines” value in test [5] (600 nM) turned out to be 66; in test [5] (1200 nM), 46; in test [5] (2,400 nM), 36; in test [5] (5,000 nM), 0. Besides, the “Survival Rate (%)” value in test [6] (2.5 nM) is 30%; in test [6] (5 nM), 10%; in test [6] (8 nM (last line of the table)), 0%; in test [6] (10 nM), 0%; in test [6] (20 nM), 0%; in test [6] (40 nM), 0%. In addition, in test [6] (tobacco callus on MS solid medium), the “concentration at which the callus completely dies” value is recorded as 10 nM.
